In data set [1] the test system is GFP-A549 human lung cancer cells.
Protocol: Experimental animals were held in nose-only air-tight tubes for designated time intervals.
Inhalation treatment was resumed 2 days post-surgery and continued for 6 weeks when mice were euthanized, and blood and lung tissues were collected. Luminosity of the GFP-A549 tumors was measured and the lungs were weighed.
The conditions of data set [2]: for Total drug levels (PS V plus its metabolites): plasma.
On the set-up of data set [3]: unit not given beside the values. As to conditions: mouse, in vivo, inhaled or intranasal.
For another data set, the system named is lung cancer. As to conditions: curcumin as a single agent, pre-clinical models of lung cancer; cited from earlier work.

Like-named read-outs stand apart in the source and are kept apart here. A value given as a limit tells only on which side of the number the result lay.

As to `CCOP(=O)(OCC)OCCCCOC(=O)CC1=C(C)/C(=C/c2ccc([S+](C)[O-])cc2)c2ccc(F)cc21` (stereo not drawn) [PS V, phospho-sulindac], the “tumor size by luminosity” value in data set [1] (at sacrifice, Mean±SEM, control = 19.85±4.33, p < 0.001) is 5.05±2.97. Moreover, the “tumor size by lung weight” value in data set [1] (at sacrifice, Mean±SEM, control = 385.7±85.2 mg, p < 0.001) came out at 204.4 ± 39.4 mg. Further, the death rate result in data set [1] (end of the study, aerosol of 50 mg/mL PS V for 8 min, control group 40 %, p < 0.03) is “less than 10%”. Besides, the “level of intact PS V in the lungs” value is on record as above 20 nmol/g in data set [2] (inhalational, 6.5 mg/kg body weight) and below 2 nmol/g in data set [2] (oral administration, 150 mg/kg body weight). In addition, the “Total drug levels (PS V plus its metabolites)” value in data set [2] (after inhalation treatment, 6.5 mg/kg) worked out at 17 µM; in data set [2] (after oral administration, 150 mg/kg), 348 µM.
For the compound `CC1=C(CC(=O)O)c2cc(F)ccc2/C1=C\c1ccc([S+](C)[O-])cc1` (stereo not drawn) [Sulindac, sulindac], in data set [3], the AUC came to 30.1.
Take `COc1cc(/C=C/C(=O)CC(=O)/C=C/c2ccc(O)c(OC)c2)ccc1O` [curcumin]: the efficacy in the data set on lung cancer was below 30%.

The values are drawn from EP2711006A1, “Product Comprising a Nicotine-Containing Material and an Anti-Cancer Agent” (Rigas, Basil, priority 2012, dated 2014).
